Experimental data as given in PubChem BioAssay (NCI).
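Growth conditions: 96-well plates. Treatment: test compound, 48 hours, 5 concentrations. Analysis: linear interpolation between bracketing concentrations; unreached endpoints set to highest concentration. Abbreviation: GI50, concentration required for 50% inhibition of growth. The concentration for full growth arrest is given as TGI.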

How the values were obtained:
Test in all cases: DTP human tumour cell line panel, 48 h
KM12 colon = tested on: KM12 colon
SF-295 CNS = tested on: SF-295 CNS
SK-OV-3 ovarian = tested on: SK-OV-3 ovarian
HOP-92 NSCLC = tested on: HOP-92 NSCLC
BT-549 breast = tested on: BT-549 breast
SNB-75 CNS = tested on: SNB-75 CNS
NCI/ADR-RES ovarian = tested on: NCI/ADR-RES ovarian
HCC-2998 colon = tested on: HCC-2998 colon
SK-MEL-28 melanoma = tested on: SK-MEL-28 melanoma
HOP-62 NSCLC = tested on: HOP-62 NSCLC
SF-539 CNS = tested on: SF-539 CNS
UO-31 renal = tested on: UO-31 renal
SK-MEL-5 melanoma = tested on: SK-MEL-5 melanoma
DU-145 prostate = tested on: DU-145 prostate
ACHN renal = tested on: ACHN renal
U251 CNS = tested on: U251 CNS
HT29 colon = tested on: HT29 colon
M14 melanoma = tested on: M14 melanoma
RPMI-8226 leukemia = tested on: RPMI-8226 leukemia
SF-268 CNS = tested on: SF-268 CNS
SW-620 colon = tested on: SW-620 colon
LOX IMVI melanoma = tested on: LOX IMVI melanoma
TK-10 renal = tested on: TK-10 renal
RXF 393 renal = tested on: RXF 393 renal
COLO 205 colon = tested on: COLO 205 colon
MDA-MB-231 breast = tested on: MDA-MB-231 breast
MCF7 breast = tested on: MCF7 breast
SR leukemia = tested on: SR leukemia
MALME-3M melanoma = tested on: MALME-3M melanoma

In the case of `N#CCn1c(=O)c(Oc2ccc(F)cc2F)cc2cnc(NC3CCOCC3)nc21`, the GI50 (KM12 colon) is reported as > 25 µM, the TGI (KM12 colon) is reported as > 25 µM and the GI50 (SF-295 CNS) is reported as > 25 µM. For the same molecule, the TGI (SF-295 CNS) was > 25 µM, the GI50 (SK-OV-3 ovarian) was > 25 µM and the TGI (SK-OV-3 ovarian) was > 25 µM. For the same molecule, the GI50 (HOP-92 NSCLC) was 15.4 µM, the TGI (HOP-92 NSCLC) was > 25 µM and the GI50 (BT-549 breast) was 24.8 µM. For the same molecule, the TGI (BT-549 breast) was > 25 µM, the GI50 (SNB-75 CNS) was > 25 µM and the TGI (SNB-75 CNS) was > 25 µM. For the same molecule, the GI50 (NCI/ADR-RES ovarian) was > 25 µM, the TGI (NCI/ADR-RES ovarian) was > 25 µM and the GI50 (HCC-2998 colon) was > 25 µM. The TGI (HCC-2998 colon) was > 25 µM, the GI50 (SK-MEL-28 melanoma) was > 25 µM and the TGI (SK-MEL-28 melanoma) was > 25 µM. For the same molecule, the GI50 (HOP-62 NSCLC) was > 25 µM, the TGI (HOP-62 NSCLC) was > 25 µM and the GI50 (SF-539 CNS) was > 25 µM. For the same molecule, the TGI (SF-539 CNS) was > 25 µM, the GI50 (UO-31 renal) was > 19.8 µM and the TGI (UO-31 renal) was > 25 µM. The GI50 (SK-MEL-5 melanoma) was > 25 µM, the TGI (SK-MEL-5 melanoma) was > 25 µM and the GI50 (DU-145 prostate) was > 25 µM. For the same molecule, the TGI (DU-145 prostate) was > 25 µM, the GI50 (ACHN renal) was 19.5 µM and the TGI (ACHN renal) was > 25 µM. For the same molecule, the GI50 (U251 CNS) was > 25 µM, the TGI (U251 CNS) was > 25 µM and the GI50 (HT29 colon) was > 25 µM. The TGI (HT29 colon) was > 25 µM, the GI50 (M14 melanoma) was > 25 µM and the TGI (M14 melanoma) was > 25 µM. For the same molecule, the GI50 (RPMI-8226 leukemia) was > 25 µM, the TGI (RPMI-8226 leukemia) was > 25 µM and the GI50 (SF-268 CNS) was > 25 µM. The TGI (SF-268 CNS) was > 25 µM, the GI50 (SW-620 colon) was > 25 µM and the TGI (SW-620 colon) was > 25 µM. For the same molecule, the GI50 (LOX IMVI melanoma) was > 25 µM, the TGI (LOX IMVI melanoma) was > 25 µM and the GI50 (TK-10 renal) was > 25 µM. The TGI (TK-10 renal) was > 25 µM, the GI50 (RXF 393 renal) was > 17.9 µM and the TGI (RXF 393 renal) was > 25 µM. For the same molecule, the GI50 (COLO 205 colon) was > 25 µM, the TGI (COLO 205 colon) was > 25 µM and the GI50 (MDA-MB-231 breast) was > 25 µM. For the same molecule, the TGI (MDA-MB-231 breast) was > 25 µM, the GI50 (MCF7 breast) was > 25 µM and the TGI (MCF7 breast) was > 25 µM. The GI50 (SR leukemia) was > 25 µM, the TGI (SR leukemia) was > 25 µM and the GI50 (MALME-3M melanoma) was > 22.5 µM.
